Literature values, collected in patent US20230022136A1, “DIFFUSIVITY CONTRAST AGENTS FOR MEDICAL IMAGING” (priority 2020, published 2023).

Details: attributed to increased hydrogen bonding of the water molecules

- increase of the diffusion coefficient of glucose through water: 25-30%
SMILES: CC(/C=C/C=C(\C)C(=O)[O-])=C\C=C\C=C(C)\C=C\C=C(/C)C(=O)[O-].[Na+].[Na+] [Trans-Sodium crocetinate]
